Results reported in patent US11945822B2, “Pyrazolo-triazine and/or pyrazolo-pxrimidine derivatives as selective inhibitor of cyclin dependent kinase” (QURIENT CO., LTD., priority 2018, dated 2024).

biological target: T1, CDK5/p25 (Homo sapiens, UniProt Q00535); assay: Enzymatic assay for CDK5 (FRET based LANCE Ultra kinase assay); format: biochemical; conditions: read-out: CDK5 enzymatic activity (IC50 range)
T1 construct: purchased Invitrogen PR8543B
Summary of the method: (§1)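 LANCE Ultra TR-FRET: ULight-MBP peptide (68 nM) with ATP at Km, […], 60 min at 23° C. EDTA plus Eu-anti-phospho-MBP added, another 60 min, then 665/615 nm emission read. Compounds tested as 8-dose 4-fold DMSO dilutions.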

T1 sequence (Q00535 whole entry): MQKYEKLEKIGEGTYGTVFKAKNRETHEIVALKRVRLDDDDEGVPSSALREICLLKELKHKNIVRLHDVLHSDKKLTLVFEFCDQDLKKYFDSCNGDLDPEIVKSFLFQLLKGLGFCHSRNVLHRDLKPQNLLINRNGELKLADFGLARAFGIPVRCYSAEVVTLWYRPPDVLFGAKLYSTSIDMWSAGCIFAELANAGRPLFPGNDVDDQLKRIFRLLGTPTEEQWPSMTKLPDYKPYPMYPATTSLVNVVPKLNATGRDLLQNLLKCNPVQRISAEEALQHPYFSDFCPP
T1 sequence (Q15078 99-307 partner limits assumed): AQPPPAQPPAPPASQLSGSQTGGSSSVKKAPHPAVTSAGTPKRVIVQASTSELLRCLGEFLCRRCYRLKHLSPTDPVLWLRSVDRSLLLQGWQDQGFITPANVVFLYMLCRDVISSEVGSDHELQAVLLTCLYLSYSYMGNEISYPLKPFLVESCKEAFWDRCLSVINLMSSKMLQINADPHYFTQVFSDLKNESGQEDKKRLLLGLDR

| IC50 | SMILES |
| --- | --- |
| 100 to 1000 nM | CC(C)c1cnn2c(NCc3ccccc3-n3cccn3)nc(-c3cccc(OC4CCNC4)c3)nc12 (racemic) [Compound 163] |
| 100 to 1000 nM | CC(C)c1cnn2c(NCc3ccccc3-c3ccc4ccccc4n3)nc(NC[C@H]3CCNC[C@@H]3O)nc12 [Compound 225] |
| > 1000 nM | CC(C)c1cnn2c(NCc3c(Cl)cccc3-c3cc4ccccc4[nH]3)nc(N3CCC(N)CC3)nc12 [Compound 182] |
| > 1000 nM | CC(C)c1cnn2c(NCc3c(Cl)cccc3-c3ccc4ccccc4n3)nc(N3CCC(N)CC3)nc12 [Compound 194] |

biological target: T2, CDK1/Cyclin B (Homo sapiens, UniProt P06493); assay: Enzymatic assay for CDK1 (FRET based LANCE Ultra kinase assay); format: biochemical; conditions: read-out: CDK1 enzymatic activity (IC50 range)
T2 construct: purchased Invitrogen PR4768C
Summary of the method: as §1

T2 sequence (P06493 whole entry): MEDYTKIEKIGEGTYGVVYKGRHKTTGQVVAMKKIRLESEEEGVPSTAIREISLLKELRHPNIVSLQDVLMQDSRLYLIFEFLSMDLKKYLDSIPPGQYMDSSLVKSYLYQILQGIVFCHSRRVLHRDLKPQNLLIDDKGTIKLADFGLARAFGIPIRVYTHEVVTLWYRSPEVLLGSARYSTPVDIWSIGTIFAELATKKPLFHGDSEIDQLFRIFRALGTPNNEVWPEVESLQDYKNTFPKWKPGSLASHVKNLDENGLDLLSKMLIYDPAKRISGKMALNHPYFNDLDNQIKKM
T2 sequence (P14635 whole entry partner): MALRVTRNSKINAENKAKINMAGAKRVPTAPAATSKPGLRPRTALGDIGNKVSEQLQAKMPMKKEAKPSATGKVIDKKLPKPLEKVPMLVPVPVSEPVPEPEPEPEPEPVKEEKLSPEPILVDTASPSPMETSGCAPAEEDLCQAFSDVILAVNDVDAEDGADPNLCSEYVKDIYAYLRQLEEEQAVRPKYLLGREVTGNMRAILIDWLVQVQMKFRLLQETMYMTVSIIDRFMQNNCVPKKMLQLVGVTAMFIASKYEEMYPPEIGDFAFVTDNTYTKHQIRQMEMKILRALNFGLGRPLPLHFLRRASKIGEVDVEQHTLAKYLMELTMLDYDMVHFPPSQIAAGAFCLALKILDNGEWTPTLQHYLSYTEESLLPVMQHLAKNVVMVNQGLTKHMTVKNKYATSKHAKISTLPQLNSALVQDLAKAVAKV

| IC50 | SMILES |
| --- | --- |
| > 1000 nM | CC(C)c1cnn2c(NCc3ccccc3-n3cccn3)nc(-c3cccc(OC4CCNC4)c3)nc12 (racemic) [Compound 163] |
| > 1000 nM | CC(C)c1cnn2c(NCc3ccccc3-c3ccc4ccccc4n3)nc(NC[C@H]3CCNC[C@@H]3O)nc12 [Compound 225] |
| > 1000 nM | CC(C)c1cnn2c(NCc3c(Cl)cccc3-c3cc4ccccc4[nH]3)nc(N3CCC(N)CC3)nc12 [Compound 182] |
| > 1000 nM | CC(C)c1cnn2c(NCc3c(Cl)cccc3-c3ccc4ccccc4n3)nc(N3CCC(N)CC3)nc12 [Compound 194] |

system: A2780; assay: Cellular A2780 viability assay (CellTiter-Glo, 72 hours); format: cell-based; conditions: Homo sapiens
Summary of the method: (§2)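 Cells seeded at 1×10^4/well (MM.1S), 5×10^3 (OVCAR-3) or 1×10^3 (A2780), grown in RPMI-1640 with 10% FBS. After 24 h, compound added at 0.0015–10 uM, final DMSO below 0.1%, for 72 h at 37° C. Viability read by CellTiter-Glo luminescence in duplicate, with curve fitting.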

| IC50 | SMILES |
| --- | --- |
| ≤ 1000 nM | CC(C)c1cnn2c(NCc3ccccc3-n3cccn3)nc(-c3cccc(OC4CCNC4)c3)nc12 (racemic) [Compound 163] |
| ≤ 1000 nM | CC(C)c1cnn2c(NCc3ccccc3-c3ccc4ccccc4n3)nc(NC[C@H]3CCNC[C@@H]3O)nc12 [Compound 225] |
| ≤ 1000 nM | CC(C)c1cnn2c(NCc3c(Cl)cccc3-c3cc4ccccc4[nH]3)nc(N3CCC(N)CC3)nc12 [Compound 182] |
| ≤ 1000 nM | CC(C)c1cnn2c(NCc3c(Cl)cccc3-c3ccc4ccccc4n3)nc(N3CCC(N)CC3)nc12 [Compound 194] |

system: OVCAR-3; assay: Cellular OVCAR-3 viability assay (CellTiter-Glo, 72 hours); format: cell-based; conditions: Homo sapiens
Excerpt: Human T-cell acute lymphoblastic leukemia cell line, MOLT-4 (ATCC, Cat #CRL-1582), Human multiple myeloma cell line, RPMI-8226 (Invitrogen, Cat #22400-089) and MM.1S (ATCC, Cat #CRL-2974), NSCLC (Non-small cell lung cancer) cell line H460 (ATCC, Cat #HTB-177), Human colon colorectal carcinoma cell line HCT116 (ATCC, Cat #CCL-247), Human acute monocytic leukemia cell line MV4-11 (ATCC, Cat #CRL-9591), OVCAR-3 (ATCC, Cat #HTB-161) and A2780 (ECACC, Cat #93112519) were obtained from ATCC. Cells were grown in RPMI-1640 media (Invitrogen, Cat #22400-089) supplemented with 10% FBS (Invitrogen, Cat #10099141) and 1% penicillin/streptomycin (Invitrogen, Cat #15070063) and cultured at 37° C., 5% CO2 in a humidified chamber. All cell lines were routinely tested for mycoplasma.
The effect of the CDK7 inhibitor to inhibit the growth of target cancer cells was evaluated through the 72 hours time period of viability assay. Briefly, the candidate cell line ware plated in 96 well plate at the following density of cells respectively. 1×10^4 cells/well for MOLT-4, RPMI-8226, MV4-11 and MM.1S, 5×10^3 for H460, HCT116 and OVCAR-3 and IX 10^3 for A2780. After 24 hours, the cells were treated with various concentrations of the compound (ranging from 0.0015 uM to 10 uM). DMSO solvent without compound served as a control and final DMSO concentration less than 0.1%. After 72 hours of incubation at 37° C., 5% CO2 incubator, cells were analyzed for the viability using the CellTiter-Glo Luminescent Cell Viability Assay (Promega, Cat #G7570). All viability assays were performed in duplicate and Luminescence was read using an Envision (Perkin Elmer, USA). Data was analyzed using XLfit software.

| IC50 | SMILES |
| --- | --- |
| 1000 to 10000 nM | CC(C)c1cnn2c(NCc3ccccc3-n3cccn3)nc(-c3cccc(OC4CCNC4)c3)nc12 (racemic) [Compound 163] |
| ≤ 1000 nM | CC(C)c1cnn2c(NCc3ccccc3-c3ccc4ccccc4n3)nc(NC[C@H]3CCNC[C@@H]3O)nc12 [Compound 225] |
| 1000 to 10000 nM | CC(C)c1cnn2c(NCc3c(Cl)cccc3-c3cc4ccccc4[nH]3)nc(N3CCC(N)CC3)nc12 [Compound 182] |
| 1000 to 10000 nM | CC(C)c1cnn2c(NCc3c(Cl)cccc3-c3ccc4ccccc4n3)nc(N3CCC(N)CC3)nc12 [Compound 194] |

system: H460; assay: Cellular H460 viability assay (CellTiter-Glo, 72 hours); format: cell-based; conditions: Homo sapiens, NCI-H460
Summary of the method: (§3)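 72 h treatment, 37 °C, 5% CO2; DMSO ctrl, final <0.1%; CellTiter-Glo luminescence; n=2.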

| IC50 | SMILES |
| --- | --- |
| < 1000 nM | CC(C)c1cnn2c(NCc3ccccc3-n3cccn3)nc(-c3cccc(OC4CCNC4)c3)nc12 (racemic) [Compound 163] |
| < 1000 nM | CC(C)c1cnn2c(NCc3ccccc3-c3ccc4ccccc4n3)nc(NC[C@H]3CCNC[C@@H]3O)nc12 [Compound 225] |
| < 1000 nM | CC(C)c1cnn2c(NCc3c(Cl)cccc3-c3cc4ccccc4[nH]3)nc(N3CCC(N)CC3)nc12 [Compound 182] |
| < 1000 nM | CC(C)c1cnn2c(NCc3c(Cl)cccc3-c3ccc4ccccc4n3)nc(N3CCC(N)CC3)nc12 [Compound 194] |

biological target: T3, CDK7/Cyclin H/MNAT1 (Homo sapiens, UniProt P50613); assay: Enzymatic assay for CDK7 (FRET based LANCE Ultra kinase assay); format: biochemical; conditions: CDK7 over CDK1
T3 construct: purchased Invitrogen PR6749B
Summary of the method: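 LANCE Ultra TR-FRET kinase assay using a ULight-labeled peptide substrate and a Eu-labeled anti-phospho antibody, with ATP at its Km. Purified CDK/cyclin complex was added to compound after brief centrifugation.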

T3 sequence (P50613 whole entry): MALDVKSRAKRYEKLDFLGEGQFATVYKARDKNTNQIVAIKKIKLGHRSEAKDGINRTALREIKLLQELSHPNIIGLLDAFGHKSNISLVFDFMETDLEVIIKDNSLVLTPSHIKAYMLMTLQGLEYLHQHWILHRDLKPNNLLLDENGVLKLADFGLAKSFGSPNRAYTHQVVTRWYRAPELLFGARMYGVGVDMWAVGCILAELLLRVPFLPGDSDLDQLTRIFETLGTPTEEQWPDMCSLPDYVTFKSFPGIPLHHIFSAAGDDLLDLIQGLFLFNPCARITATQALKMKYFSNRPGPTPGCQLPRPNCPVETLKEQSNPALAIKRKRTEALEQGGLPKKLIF
T3 sequence (P51946 whole entry partner): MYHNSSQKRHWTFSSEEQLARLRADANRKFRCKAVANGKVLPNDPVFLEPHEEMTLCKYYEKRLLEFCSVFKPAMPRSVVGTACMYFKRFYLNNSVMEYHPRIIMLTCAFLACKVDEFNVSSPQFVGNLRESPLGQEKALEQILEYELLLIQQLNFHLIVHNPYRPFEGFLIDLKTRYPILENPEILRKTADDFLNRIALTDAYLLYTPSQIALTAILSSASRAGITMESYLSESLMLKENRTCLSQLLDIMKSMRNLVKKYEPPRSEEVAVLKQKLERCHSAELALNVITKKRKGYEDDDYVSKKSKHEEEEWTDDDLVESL
T3 sequence (P51948 whole entry partner): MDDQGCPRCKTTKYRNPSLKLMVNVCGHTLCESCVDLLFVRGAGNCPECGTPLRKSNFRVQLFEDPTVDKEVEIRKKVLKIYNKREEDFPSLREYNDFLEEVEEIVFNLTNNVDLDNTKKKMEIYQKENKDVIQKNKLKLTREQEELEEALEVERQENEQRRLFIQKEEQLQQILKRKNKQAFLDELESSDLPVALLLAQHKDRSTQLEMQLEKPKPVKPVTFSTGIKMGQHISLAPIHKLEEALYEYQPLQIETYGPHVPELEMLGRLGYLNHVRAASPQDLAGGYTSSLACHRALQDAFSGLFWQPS

| CDK1/CDK7: Selectivity of CDK7 inhibition over CDK1 inhibition | SMILES |
| --- | --- |
| A (A=greater than 200 fold) | CC(C)c1cnn2c(NCc3ccccc3-n3cccn3)nc(-c3cccc(OC4CCNC4)c3)nc12 (racemic) [Compound 163] |
| A (A=greater than 200 fold) | CC(C)c1cnn2c(NCc3ccccc3-c3ccc4ccccc4n3)nc(NC[C@H]3CCNC[C@@H]3O)nc12 [Compound 225] |
| A (A=greater than 200 fold) | CC(C)c1cnn2c(NCc3c(Cl)cccc3-c3cc4ccccc4[nH]3)nc(N3CCC(N)CC3)nc12 [Compound 182] |
| A (A=greater than 200 fold) | CC(C)c1cnn2c(NCc3c(Cl)cccc3-c3ccc4ccccc4n3)nc(N3CCC(N)CC3)nc12 [Compound 194] |

same assay, conditions: CDK7 over CDK2

| CDK2/CDK7: Selectivity of CDK7 inhibition over CDK2 inhibition | SMILES |
| --- | --- |
| A (A=greater than 200 fold) | CC(C)c1cnn2c(NCc3ccccc3-c3ccc4ccccc4n3)nc(NC[C@H]3CCNC[C@@H]3O)nc12 [Compound 225] |
| A (A=greater than 200 fold) | CC(C)c1cnn2c(NCc3c(Cl)cccc3-c3cc4ccccc4[nH]3)nc(N3CCC(N)CC3)nc12 [Compound 182] |
| A (A=greater than 200 fold) | CC(C)c1cnn2c(NCc3c(Cl)cccc3-c3ccc4ccccc4n3)nc(N3CCC(N)CC3)nc12 [Compound 194] |

| SMILES | CDK2/CDK7: Selectivity of CDK7 inhibition over CDK2 inhibition |
| --- | --- |
| CC(C)c1cnn2c(NCc3ccccc3-n3cccn3)nc(-c3cccc(OC4CCNC4)c3)nc12 (racemic) [Compound 163] | B (B=less than 200 fold, but greater than 20 fold) |

same assay, conditions: CDK7 over CDK5

| CDK5/CDK7: Selectivity of CDK7 inhibition over CDK5 inhibition | SMILES |
| --- | --- |
| A (A=greater than 200 fold) | CC(C)c1cnn2c(NCc3ccccc3-c3ccc4ccccc4n3)nc(NC[C@H]3CCNC[C@@H]3O)nc12 [Compound 225] |
| A (A=greater than 200 fold) | CC(C)c1cnn2c(NCc3c(Cl)cccc3-c3cc4ccccc4[nH]3)nc(N3CCC(N)CC3)nc12 [Compound 182] |
| A (A=greater than 200 fold) | CC(C)c1cnn2c(NCc3c(Cl)cccc3-c3ccc4ccccc4n3)nc(N3CCC(N)CC3)nc12 [Compound 194] |

| SMILES | CDK5/CDK7: Selectivity of CDK7 inhibition over CDK5 inhibition |
| --- | --- |
| CC(C)c1cnn2c(NCc3ccccc3-n3cccn3)nc(-c3cccc(OC4CCNC4)c3)nc12 (racemic) [Compound 163] | B (B=less than 200 fold, but greater than 20 fold) |

same assay, conditions: read-out: CDK7 enzymatic activity (IC50 range)

| IC50 | SMILES |
| --- | --- |
| < 100 nM | CC(C)c1cnn2c(NCc3ccccc3-n3cccn3)nc(-c3cccc(OC4CCNC4)c3)nc12 (racemic) [Compound 163] |
| < 100 nM | CC(C)c1cnn2c(NCc3ccccc3-c3ccc4ccccc4n3)nc(NC[C@H]3CCNC[C@@H]3O)nc12 [Compound 225] |
| < 100 nM | CC(C)c1cnn2c(NCc3c(Cl)cccc3-c3cc4ccccc4[nH]3)nc(N3CCC(N)CC3)nc12 [Compound 182] |
| < 100 nM | CC(C)c1cnn2c(NCc3c(Cl)cccc3-c3ccc4ccccc4n3)nc(N3CCC(N)CC3)nc12 [Compound 194] |

system: MV4-11; assay: Cellular MV4-11 viability assay (CellTiter-Glo, 72 hours); format: cell-based; conditions: Homo sapiens
Summary of the method: as §3

| IC50 | SMILES |
| --- | --- |
| < 1000 nM | CC(C)c1cnn2c(NCc3ccccc3-n3cccn3)nc(-c3cccc(OC4CCNC4)c3)nc12 (racemic) [Compound 163] |
| < 1000 nM | CC(C)c1cnn2c(NCc3ccccc3-c3ccc4ccccc4n3)nc(NC[C@H]3CCNC[C@@H]3O)nc12 [Compound 225] |
| < 1000 nM | CC(C)c1cnn2c(NCc3c(Cl)cccc3-c3cc4ccccc4[nH]3)nc(N3CCC(N)CC3)nc12 [Compound 182] |
| < 1000 nM | CC(C)c1cnn2c(NCc3c(Cl)cccc3-c3ccc4ccccc4n3)nc(N3CCC(N)CC3)nc12 [Compound 194] |

system: MM.1S; assay: Cellular MM.1S viability assay (CellTiter-Glo, 72 hours); format: cell-based; conditions: Homo sapiens, MM1.S
Summary of the method: as §2

| IC50 | SMILES |
| --- | --- |
| ≤ 1000 nM | CC(C)c1cnn2c(NCc3ccccc3-n3cccn3)nc(-c3cccc(OC4CCNC4)c3)nc12 (racemic) [Compound 163] |
| ≤ 1000 nM | CC(C)c1cnn2c(NCc3c(Cl)cccc3-c3cc4ccccc4[nH]3)nc(N3CCC(N)CC3)nc12 [Compound 182] |
| ≤ 1000 nM | CC(C)c1cnn2c(NCc3c(Cl)cccc3-c3ccc4ccccc4n3)nc(N3CCC(N)CC3)nc12 [Compound 194] |

system: RPMI-8226; assay: Cellular RPMI-8226 viability assay (CellTiter-Glo, 72 hours); format: cell-based; conditions: Homo sapiens
Summary of the method: as §3

| IC50 | SMILES |
| --- | --- |
| < 1000 nM | CC(C)c1cnn2c(NCc3c(Cl)cccc3-c3cc4ccccc4[nH]3)nc(N3CCC(N)CC3)nc12 [Compound 182] |

system: HCT116; assay: Cellular HCT116 viability assay (CellTiter-Glo, 72 hours); format: cell-based; conditions: Homo sapiens, HCT-116
Summary of the method: as §3

| IC50 | SMILES |
| --- | --- |
| < 1000 nM | CC(C)c1cnn2c(NCc3ccccc3-c3ccc4ccccc4n3)nc(NC[C@H]3CCNC[C@@H]3O)nc12 [Compound 225] |
| < 1000 nM | CC(C)c1cnn2c(NCc3c(Cl)cccc3-c3cc4ccccc4[nH]3)nc(N3CCC(N)CC3)nc12 [Compound 182] |
| < 1000 nM | CC(C)c1cnn2c(NCc3c(Cl)cccc3-c3ccc4ccccc4n3)nc(N3CCC(N)CC3)nc12 [Compound 194] |

biological target: T4, CDK2/Cyclin A (Homo sapiens, UniProt P24941); assay: Enzymatic assay for CDK2 (FRET based LANCE Ultra kinase assay); format: biochemical; conditions: read-out: CDK2 enzymatic activity (IC50 range)
T4 construct: purchased Invitrogen PV6290
Summary of the method: as §1

| IC50 | SMILES |
| --- | --- |
| 100 to 1000 nM | CC(C)c1cnn2c(NCc3ccccc3-n3cccn3)nc(-c3cccc(OC4CCNC4)c3)nc12 (racemic) [Compound 163] |
| 100 to 1000 nM | CC(C)c1cnn2c(NCc3ccccc3-c3ccc4ccccc4n3)nc(NC[C@H]3CCNC[C@@H]3O)nc12 [Compound 225] |
| > 1000 nM | CC(C)c1cnn2c(NCc3c(Cl)cccc3-c3cc4ccccc4[nH]3)nc(N3CCC(N)CC3)nc12 [Compound 182] |
| > 1000 nM | CC(C)c1cnn2c(NCc3c(Cl)cccc3-c3ccc4ccccc4n3)nc(N3CCC(N)CC3)nc12 [Compound 194] |
